Consider 35 molecules from patent US8299056B2 (Signal Pharmaceuticals, LLC, priority 2008, dated 2012).

The target in the assay is T1, Syk (Homo sapiens, UniProt P43405).
T1 construct: purchased Carna Biosciences
As to the kind of experiment: Syk HTRF assay. Type of assay: biochemical. The following applies: activity levels A-D, read-out: Activity Level (IC50 in the Syk HTRF assay). The gist of the method: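 HTRF kinase assay in HEPES pH 7.6 buffer with MgCl2, DTT and Triton X100; start mix of 87.5 μM ATP and 80 nM biotinylated peptide, 1 h at room temperature. EDTA stop, then Eu-anti-phosphotyrosine/streptavidin-DyLight 647 detection, read as 665/615 nm emission ratio.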
As to `Cc1cc(Nc2nc3cccc(CN4CCNC(=O)C4)n3n2)ccc1F` [Example 228, 4-((2-(4-fluoro-3-methylphenylamino)-[1,2,4]triazolo[1,5-a]pyridin-5-yl)methyl)piperazin-2-one], the 50% inhibitory concentration (IC50) was 250 to 500 nM.

On to `O=C1CN(Cc2cccc3nc(Nc4cnc5[nH]ccc5c4)nn23)CCN1` [Example 229, 4-((2-(1H-pyrrolo[2,3-b]pyridin-5-ylamino)-[1,2,4]triazolo[1,5-a]pyridin-5-yl)methyl)piperazin-2-one], for which the IC50 is 0.005 to 250 nM.

With `COCc1n[nH]c2cc(Nc3nc4cccc(N[C@H]5CC[C@@H](O)CC5)n4n3)ccc12` [Example 231, cis-4-(2-(3-(methoxymethyl)-1H-indazol-6-ylamino)-[1,2,4]triazolo[1,5-a]pyridin-5-ylamino)cyclohexanol], the IC50 lay within 0.005 to 250 nM.

Take `Cc1n[nH]c2cc(Nc3nc4cccc(CN5CCN(c6ccc7c(C)n[nH]c7c6)C(=O)C5)n4n3)ccc12` [Example 234, 1-(3-methyl-1H-indazol-6-yl)-4-((2-(3-methyl-1H-indazol-6-ylamino)-[1,2,4]triazolo[1,5-a]pyridin-5-yl)methyl)piperazin-2-one]: the IC50 lay in the range of 1000 to 10000 nM.

Regarding `Cc1n[nH]c2cc(Nc3nc4cccc(CN5CCNC(=O)C5)n4n3)ccc12` [Example 235, 4-((2-(3-methyl-1H-indazol-6-ylamino)-[1,2,4]triazolo[1,5-a]pyridin-5-yl)methyl)piperazin-2-one], the IC50 was in the range of 0.005 to 250 nM.

Consider `Cn1ncc2cc(Nc3nc4cccc(N[C@H]5CC[C@@H](O)CC5)n4n3)ccc21` [Example 236, cis-4-(2-(1-methyl-1H-indazol-5-ylamino)-[1,2,4]triazolo[1,5-a]pyridin-5-ylamino)cyclohexanol], for which the IC50 fell in the range of 0.005 to 250 nM.

Turning to `O[C@H]1CC[C@@H](Nc2cccc3nc(Nc4ccc5[nH]nnc5c4)nn23)CC1` [Example 237, cis-4-(2-(1H-benzo[d][1,2,3]triazolo-5-ylamino)-[1,2,4]triazolo[1,5-a]pyridin-5-ylamino)cyclohexanol], the IC50 fell in the range of 0.005 to 250 nM.

Regarding `O=C1Cc2ccc(Nc3nc4cccc(N[C@H]5CC[C@@H](O)CC5)n4n3)cc2N1` [Example 238, cis-6-(5-(4-hydroxycyclohexylamino)-[1,2,4]triazolo[1,5-a]pyridin-2-ylamino)indolin-2-one], the IC50 lay in the range of 0.005 to 250 nM.

With `Cc1n[nH]c2cc(Nc3nc4cccc(C[C@H]5CC[C@@H](O)CC5)n4n3)ccc12` [Example 239, cis-4-((2-(3-methyl-1H-indazol-6-ylamino)-[1,2,4]triazolo[1,5-a]pyridin-5-yl)methyl)cyclohexanol], the IC50 fell in the range of 0.005 to 250 nM.

Take `CNC(=O)c1ccc(Nc2nc3cccc(-n4ccnc4)n3n2)cc1` [Example 241, 4-(5-(1H-imidazol-1-yl)-[1,2,4]triazolo[1,5-a]pyridin-2-ylamino)-N-methylbenzamide]: the IC50 lay within 1000 to 10000 nM.

Turning to `CNC(=O)c1ccc(Nc2nc3cccc(N4CCC(O)CC4)n3n2)cc1` [Example 242, 4-(5-(4-hydroxypiperidin-1-yl)-[1,2,4]triazolo[1,5-a]pyridin-2-ylamino)-N-methylbenzamide], the IC50 was 1000 to 10000 nM.

For the molecule `CC(C)n1ncc2ccc(Nc3nc4cccc(N[C@H]5CC[C@@H](O)CC5)n4n3)cc21` [Example 243, cis-4-(2-(1-isopropyl-1H-indazol-6-ylamino)-[1,2,4]triazolo[1,5-a]pyridin-5-ylamino)cyclohexanol], the IC50 was in the range of 0.005 to 250 nM.

Turning to `CNC(=O)c1ccc(Nc2nc3cccc(-c4ccc5nc(C)[nH]c5c4)n3n2)cc1` [Example 244, N-methyl-4-(5-(2-methyl-1H-benzo[d]imidazol-6-yl)-[1,2,4]triazolo[1,5-a]pyridin-2-ylamino)benzamide], the IC50 lay in the range of 0.005 to 250 nM.

For the molecule `CCc1n[nH]c2cc(Nc3nc4cccc(N[C@H]5CC[C@@H](O)CC5)n4n3)ccc12` [Example 245, cis-4-(2-(3-ethyl-1H-indazol-6-ylamino)-[1,2,4]triazolo[1,5-a]pyridin-5-ylamino)cyclohexanol], the IC50 lay in the range of 0.005 to 250 nM.

On to `O[C@@H]1CCC[C@H]1Nc1cc(-c2cccc3nc(Nc4ccc(C(F)(F)F)cc4)nn23)ccn1` [Example 246, (1R,2R)-2-(4-(2-(4-(trifluoromethyl)phenylamino)-[1,2,4]triazolo[1,5-a]pyridin-5-yl)pyridin-2-ylamino)cyclopentanol], for which the IC50 fell in the range of 500 to 1000 nM.

Regarding `CNC(=O)c1ccc(Nc2nc3cccc(N4CCCCC4)n3n2)cc1` [Example 247, N-methyl-4-(5-(piperidin-1-yl)-[1,2,4]triazolo[1,5-a]pyridin-2-ylamino)benzamide], the IC50 fell in the range of 500 to 1000 nM.

Take `CNC(=O)c1ccc(Nc2nc3cccc(N4CC[C@H](O)C4)n3n2)cc1` [Example 249, (S)-4-(5-(3-hydroxypyrrolidin-1-yl)-[1,2,4]triazolo[1,5-a]pyridin-2-ylamino)-N-methylbenzamide]: the IC50 was 500 to 1000 nM.

Turning to `CNC(=O)c1ccc(Nc2nc3cccc(N4CCCC4)n3n2)cc1` [Example 251, N-methyl-4-(5-(pyrrolidin-1-yl)-[1,2,4]triazolo[1,5-a]pyridin-2-ylamino)benzamide], the IC50 fell in the range of 250 to 500 nM.

On to `O=C1CN(Cc2cccc3nc(Nc4ccc(C(F)(F)F)cc4)nn23)C(=O)N1` [Example 252, 1-((2-(4-(trifluoromethyl)phenylamino)-[1,2,4]triazolo[1,5-a]pyridin-5-yl)methyl)imidazolidine-2,4-dione], for which the IC50 fell in the range of 1000 to 10000 nM.

For `O=C1NCc2cc(Nc3nc4cccc(N[C@H]5CC[C@@H](O)CC5)n4n3)ccc21` [Example 253, cis-5-(5-(4-hydroxycyclohexylamino)-[1,2,4]triazolo[1,5-a]pyridin-2-ylamino)isoindolin-1-one], the IC50 was in the range of 0.005 to 250 nM.

As to `CNC(=O)c1ccc(Nc2nc3cccc(CCC4CCNCC4)n3n2)cc1` [Example 254, N-methyl-4-(5-(2-(piperidin-4-yl)ethyl)-[1,2,4]triazolo[1,5-a]pyridin-2-ylamino)benzamide], the IC50 was 500 to 1000 nM.

For the molecule `NC(=O)c1cc(Nc2nc3cccc(N[C@H]4CC[C@@H](O)CC4)n3n2)ccn1` [Example 255, cis-4-(5-(4-hydroxycyclohexylamino)-[1,2,4]triazolo[1,5-a]pyridin-2-ylamino)picolinamide], the IC50 is 1000 to 10000 nM.

Consider `N#Cc1cc(Nc2nc3cccc(N[C@H]4CC[C@@H](O)CC4)n3n2)ccn1` [Example 256, cis-4-(5-(4-hydroxycyclohexylamino)-[1,2,4]triazolo[1,5-a]pyridin-2-ylamino)picolinonitrile], for which the IC50 lay in the range of 500 to 1000 nM.

For the molecule `NC(=O)C1CCCN(Cc2cccc3nc(Nc4ccc(C(F)(F)F)cc4)nn23)C1` (centres unmarked) [Example 257, 1-((2-(4-(trifluoromethyl)phenylamino)-[1,2,4]triazolo[1,5-a]pyridin-5-yl)methyl)piperidine-3-carboxamide], the IC50 was in the range of 1000 to 10000 nM.

As to `CC1CNC(=O)CN1Cc1cccc2nc(Nc3ccc(C(F)(F)F)cc3)nn12` (centres unmarked) [Example 258, 5-methyl-4-((2-(4-(trifluoromethyl)phenylamino)-[1,2,4]triazolo[1,5-a]pyridin-5-yl)methyl)piperazin-2-one], the IC50 was in the range of 500 to 1000 nM.

For the molecule `OCC1CN(c2cccc3nc(Nc4ccc(C(F)(F)F)cc4)nn23)C1` [Example 259, (1-(2-(4-(trifluoromethyl)phenylamino)-[1,2,4]triazolo[1,5-a]pyridin-5-yl)azetidin-3-yl)methanol], the IC50 fell in the range of 0.005 to 250 nM.

In the case of `O=C1NCc2ccc(Nc3nc4cccc(N[C@H]5CC[C@@H](O)CC5)n4n3)cc21` [Example 260, cis-6-(5-(4-hydroxycyclohexylamino)-[1,2,4]triazolo[1,5-a]pyridin-2-ylamino)isoindolin-2-one], the IC50 is 500 to 1000 nM.

For `Cc1cc(Nc2nc3cccc(N[C@H]4CC[C@@H](O)CC4)n3n2)cc(C)n1` [Example 261, cis-4-(2-(2,6-dimethylpyridin-4-ylamino)-[1,2,4]triazolo[1,5-a]pyridin-5-ylamino)cyclohexanol], the IC50 lay within 500 to 1000 nM.

As to `CNC(=O)c1ccc(Nc2nc3cccc(CC4CCC(N)CC4)n3n2)cc1` (centres unmarked) [Example 262, 4-(5-((4-aminocyclohexyl)methyl)-[1,2,4]triazolo[1,5-a]pyridin-2-ylamino)-N-methylbenzamide], the IC50 is 0.005 to 250 nM.

Regarding `CC(c1cccc2nc(Nc3ccc(C(F)(F)F)cc3)nn12)N1CCNC(=O)C1` (centres unmarked) [Example 263, 4-(1-(2-(4-(trifluoromethyl)phenylamino)-[1,2,4]triazolo[1,5-a]pyridin-5-yl)ethyl)piperazin-2-one], the IC50 lay in the range of 0.005 to 250 nM.

For `O=C1CN(Cc2cccc3nc(Nc4ccc(C(F)(F)F)cc4)nn23)CC(=O)N1` [Example 264, 4-((2-(4-(trifluoromethyl)phenylamino)-[1,2,4]triazolo[1,5-a]pyridin-5-yl)methyl)piperazine-2,6-dione], the IC50 is 0.005 to 250 nM.

Consider `CO[C@H]1CC[C@@H](N(C)c2cccc3nc(Nc4ccc(C(F)(F)F)cc4)nn23)CC1` [Example 265, cis-N^5-(4-methoxycyclohexyl)-N^5-methyl-N^2-(4-(trifluoromethyl)phenyl)-[1,2,4]triazolo[1,5-a]pyridine-2,5-diamine], for which the IC50 lay in the range of 1000 to 10000 nM.

In the case of `CN(c1cccc2nc(Nc3ccc(C(F)(F)F)cc3)nn12)[C@H]1CC[C@@H](O)CC1` [Example 266, cis-4-(methyl(2-(4-(trifluoromethyl)phenylamino)-[1,2,4]triazolo[1,5-a]pyridin-5-yl)amino)cyclohexanol], the IC50 lay in the range of 1000 to 10000 nM.

In the case of `CNC(=O)c1ccc(Nc2nc3cccc(CC4CCNC4)n3n2)cc1` (centres unmarked) [Example 267, N-methyl-4-(5-(pyrrolidin-3-ylmethyl)-[1,2,4]triazolo[1,5-a]pyridin-2-ylamino)benzamide], the IC50 was 500 to 1000 nM.

With `O=C1CCN(Cc2cccc3nc(Nc4ccc(C(F)(F)F)cc4)nn23)CCN1` [Example 269, 1-((2-(4-(trifluoromethyl)phenylamino)-[1,2,4]triazolo[1,5-a]pyridin-5-yl)methyl)-1,4-diazepan-5-one], the IC50 was 500 to 1000 nM.
